From US12637438B2, “Protoporphyrinogen oxidase inhibitors” (Enko Chem, Inc., priority 2021, dated 2026)

What was measured:
Format in all cases: in vivo
[1] = test system: Amaranthus retroflexus (AMARE); experiment: Post-emergence herbicidal activity, spray at 100 ppm; conditions: % visual injury compared to treatment control 7 days after treatment
Description: (§1) Selected compounds of the invention were screened at 100 ppm concentration against Amaranthus retroflexus (AMARE), Setaria italica (SETIT), and Kochia/Bassia scoparia (KCHSC).
(§2) Accordingly, PPO susceptible weed seeds were sown in 5″×5″ pots by quadrant containing Miracle-Gro potting mix (Scotts Miracle-Gro Company, Marysville, OH, USA) and grown in a Conviron growth chamber with appropriate growth conditions (temperature of 26/22° C. with photoperiod 16/8 h light day/night and light intensity of 300 μmol m^−2 s^−1 supplemented by LED lamps). Relative humidity in the growth chamber was maintained at around 65%. Plants were grown until 2-4 leaf stage and thinned to 5-8 plants per quadrant per species.
(§3) Compounds were formulated in 25% Acetone, 1% Crop oil concentrate (COC-Agridex), 0.1% Tween-20, and 2.5% Ammonium sulphate (AMS). Three replicate pots were treated with each compound. Treatment consisting of the above formulation excluding active compound was applied as a treatment control (TC). Plants were treated with the test compound solution in a laboratory spray chamber fitted with 8003 flat fan nozzles calibrated to deliver 187-200 L ha^−1 at 269 kPa. Plants were placed back in the growth chamber and evaluated for % visual injury compared to TC 7 days after treatment (DAT). The data presented in Table 3 in which A represents a percentage control, where 100% control indicates complete inhibition of weed growth.

[2] = test system: Kochia/Bassia scoparia (KCHSC); experiment: as above; conditions: % visual injury compared to treatment control 7 days after treatment
Description: as §1, §2, §3

[3] = test system: Setaria italica (SETIT); experiment: as above; conditions: % visual injury compared to treatment control 7 days after treatment
Description: as §1, §2, §3

[4] = test system: Setaria Italica (Foxtail millet); experiment: Leaf penetration and translocation with and without crop oil concentrate adjuvant (COC); conditions: for Phloem mobility COC / Xylem mobility COC / Phloem mobility No-COC / Xylem mobility No-COC: 1.5 mM, 3×2 μL droplets on leaf, seven days after treatment; for Phloem mobility COC / Xylem mobility COC: with 1% v/v COC; for Phloem mobility No-COC / Xylem mobility No-COC: without COC; for leaf translocation: compared to compounds 920-4 and 920-6
Description: Selected compounds of the invention, along with compounds 920-4 and 920-6 from Japanese Patent Application No. 06321920, were tested for leaf penetration, translocation, and herbicidal activity in a grass weed species when applied with or without an adjuvant to increase the compound cuticle penetration.
Four to five PPO susceptible Setarialtalica (Foxtail millet) seed (Ernst Conservation Seeds, Meadville, PA) were sown in each of the 1.5×1.5-inch 6 cell plug inserts containing Miracle-Gro™ potting mix (Scotts Miracle-Gro Company, Marysville, OH, USA) and grown in a Conviron growth chamber with appropriate growth conditions (temperature of 26/22° C. with photoperiod 16/8 h light day/night and light intensity of 300 μmol m^−2 s^−1 supplemented by LED lamps). Relative humidity in the growth chamber was maintained at around 65%. Plants were grown until 1-2 leaf stage (one expanded leaf and one emerging leaf) and thinned to single plant per cell.
Test compounds were formulated to a final concentration of 1.5 mM in 25% Acetone, 0.1% Tween-20 and 2.5% Ammonium sulphate (AMS) with or without the addition of 1% v/v Crop oil concentrate (COC, Agridex). A total of 6 μL was applied as 3×2 μL droplets on the adaxial surface of an emerged Setaria Italica leaf for each of the two compound solutions (with and without COC). Six replicate plants were treated with each compound. Treatment consisting of the above formulation excluding active compound was applied as a treatment control (TC). Plants were placed back in the growth chamber and, seven days after treatment, were evaluated for overall % visual injury compared to TC. Plants were also evaluated for rapid necrosis representative of PPO inhibition at the site of, acropetal to, and basipetal to the droplet application site to estimate the general, xylem, and phloem compound mobility, respectively. In general, compounds with necrosis only at the site of action were considered to be poorly mobile whereas necrosis in the emerging leaf indicates symplastic phloem movement and necrosis from leaf base to tip only on the applied leaf indicates apoplastic xylem movement.
The data are presented in Table 4 are relative to the TC treatment for which the plant and leaf injury percent is consider 0%. “A” represents a percentage leaf or plant injury between 80 and 100%; “B” represents a percentage leaf or plant injury of 20-80%; “C” represents a percentage control below 20%.

[5] = test system: Amaranthus retroflexus (AMARE), Setaria italica (SETIT), and Kochia/Bassia scoparia (KCHSC); experiment: Post-emergence herbicidal activity against weed species, overall statement; conditions: concentration of 100 parts per million (PPM)
Description: as §1, §2, §3

| Structure (SMILES) | Post-emergence % control (100 PPM) AMARE [1] [%] | Post-emergence % control (100 PPM) KCHSC [2] [%] | Post-emergence % control (100 PPM) SETIT [3] [%] | Phloem mobility COC [4] | Xylem mobility COC [4] | Phloem mobility No-COC [4] | Xylem mobility No-COC [4] | leaf translocation [4] | herbicidal activity against weed species [5] |
| --- | --- | --- | --- | --- | --- | --- | --- | --- | --- |
| C#CCN1C(=O)COc2cc(F)c(-c3ccc(Cl)c(Cl)c3Cl)cc21 [Compound 920-6, reference compound] | 85 | 21 | 18 | A (“A” represents a percentage leaf or plant injury between 80 and 100%) | A (“A” represents a percentage leaf or plant injury between 80 and 100%) | C (“C” represents a percentage control below 20%) | C (“C” represents a percentage control below 20%) |  |  |
| C#CCN1C(=O)COc2cc(F)c(-c3c(Cl)cc(C(F)(F)F)cc3Cl)cc21 [Compound 920-4, reference compound] | 89 | 52 | 38 | A (“A” represents a percentage leaf or plant injury between 80 and 100%) | A (“A” represents a percentage leaf or plant injury between 80 and 100%) | C (“C” represents a percentage control below 20%) | C (“C” represents a percentage control below 20%) |  |  |
| C#CCN1C(=O)C(F)(F)Oc2cc(F)c(-c3c(F)cc(F)c(F)c3F)cc21 [Compound 37, 2,2,7-trifluoro-4-(prop-2-yn-1-yl)-6-(2,3,4,6-tetrafluorophenyl)-2H-benzo[b][1,4]oxazin-3(4H)-one] | 100 | 92 | 58 | A (“A” represents a percentage leaf or plant injury between 80 and 100%) | A (“A” represents a percentage leaf or plant injury between 80 and 100%) | A (“A” represents a percentage leaf or plant injury between 80 and 100%) | A (“A” represents a percentage leaf or plant injury between 80 and 100%) | significant improved leaf translocation | excellent herbicidal activity |
| C#CCN1C(=O)COc2cc(F)c(-c3c(F)cc(F)c(F)c3F)cc21 [Compound 52, 7-fluoro-4-(prop-2-yn-1-yl)-6-(2,3,4,6-tetrafluorophenyl)-2H-benzo[b][1,4]oxazin-3(4H)-one] | 100 | 93 | 72 | A (“A” represents a percentage leaf or plant injury between 80 and 100%) | A (“A” represents a percentage leaf or plant injury between 80 and 100%) | A (“A” represents a percentage leaf or plant injury between 80 and 100%) | A (“A” represents a percentage leaf or plant injury between 80 and 100%) | significant improved leaf translocation | excellent herbicidal activity |
| C#CCN1C(=O)C(F)(F)Oc2cc(F)c(-c3c(F)c(F)c(F)c(F)c3F)cc21 [Compound 2, 2,2,7-trifluoro-6-(perfluorophenyl)-4-(prop-2-yn-1-yl)-2H-benzo[b][1,4]oxazin-3(4H)-one] | 98 | 75 | 58 | A (“A” represents a percentage leaf or plant injury between 80 and 100%) | A (“A” represents a percentage leaf or plant injury between 80 and 100%) | A (“A” represents a percentage leaf or plant injury between 80 and 100%) | A (“A” represents a percentage leaf or plant injury between 80 and 100%) | significant improved leaf translocation | excellent herbicidal activity |
